“Also recorded” adds a separate entry of the source.
Key:
[1] = Methacholine responsiveness (PC20) in the clinical trial; format: in vivo, human; details: 4 and 8 weeks
Experimental: Protocol: This was a 6 visit, 10 week, randomized, double-blind, placebo-controlled trial specifically designed to determine the effects of inhaled fluticasone on airway gene expression and to relate those gene expression changes to improvements in lung function. After a one-week run-in/characterization period, subjects were randomized to receive 2 puffs BID of fluticasone propionate (250 μg/puff) or matching placebo for 8 weeks, followed by a one week run-out. Subjects were randomized in blocks designed to yield a greater number of subjects randomized to fluticasone as compared to placebo in order to maximize our ability to relate gene expression to lung function improvements within the intervention group. […] Spirometry was measured at baseline, before both bronchoscopies, at 4 and 8 weeks after starting study medication, and after the one week run-out according to American Thoracic Society criteria using a dry rolling-seal spirometer (Model VRS2000, PDS Instrumentation, S&M Instrument Co., Doylestown, Pa.). Methacholine responsiveness was measured at baseline and at 4 and 8 weeks after starting study medication using a five-breath dosimeter method (modified from Chai et al).^5

serpinB2 protein = test: ELISA for serpinB2 protein levels in bronchoalveolar lavage; format: in vivo, human; details: Post-fluticasone (follow-up bronchoscopy, 1 week)
Text: Periostin and serpin B2 have not previously been associated with asthma, and we examined their expression at the protein level. […] However, in asthmatics, serpinB2 levels increased in all subjects at the second bronchoscopy (Table 4s, supplementary appendix). The increase in serpinB2 at the second bronchoscopy likely reflects a pro-coagulation response to the minor bleeding that accompanied bronchial biopsy during the first bronchosocopy. ELISA for serpinB2 protein levels in bronchoalveolar lavage fluid was performed using a commercially available kit (Imubind PAI-2 ELISA, American Diagnostica Inc, Stamford Conn.) according to the manufacturer's directions.

Question: What does the source list for `CCC(=O)O[C@]1(C(=O)SCF)[C@H](C)C[C@H]2[C@@H]3C[C@H](F)C4=CC(=O)C=C[C@]4(C)[C@@]3(F)[C@@H](O)C[C@@]21C` [fluticasone, fluticasone propionate]?
Answer: PC20 methacholine improvements, fluticasone versus placebo [1]: not statistically different; also recorded: no statistically significant differences; SerpinB2 protein levels in bronchoalveolar lavage, Mean (serpinB2 protein): 0.91 ng/mL
